The source of these data is ChEMBL document CHEMBL1201862, “PubChem BioAssay data set” (2004).

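Growth conditions: 96-well plates. Treatment: test compound, 48 hours, 5 concentrations. Analysis: linear interpolation between bracketing concentrations; unreached endpoints set to highest concentration. GI50: concentration for 50% inhibition of growth.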 The source made the active and inactive calls. Rule as the data show it: active = GI50 up to about 1.1 µM and inactive = higher.

Test systems include SNB-19; LOX IMVI; MOLT-4; SNB-75; SF-295; SF-539; M19-MEL; RPMI-8226; 786-0; UACC-62; SN12C; KM12; SF-268; CAKI-1; IGROV-1; HOP-92; SW-620; COLO 205.
Common to all, as to assay: NCI anticancer screen, dose series, 48 h

Take `C=C1C(=O)O[C@H]2C[C@@H](C)[C@@H]3CC(=O)OC[C@@]3(C)CC12` (stereo partly drawn): the GI50 in the assay on SNB-19 is 53.1 µM (inactive); in the assay with LOX IMVI it was 24.9 µM (inactive); with MOLT-4, 27.5 µM (inactive); in the assay on SNB-75, 30.1 µM (inactive); in the assay on SF-295, 21.6 µM (inactive); in the assay on SF-539, 21.9 µM (inactive). Further, the GI50 was 34.5 µM (inactive) in the assay on M19-MEL; 21.4 µM (inactive) in the assay on RPMI-8226; 21.2 µM (inactive) in the assay with 786-0; 19.2 µM (inactive) in the assay on UACC-62; 21.6 µM (inactive) in the assay on SN12C; 20.5 µM (inactive) with KM12. The GI50 in the assay with SF-268 is 27.4 µM (inactive); with CAKI-1, 18 µM (inactive); in the assay on IGROV-1, 51.6 µM (inactive); in the assay with HOP-92, 16.1 µM (inactive); in the assay on SW-620 it was 16.7 µM (inactive); with COLO 205, 20.9 µM (inactive).

In the case of `COC(=O)C(Cc1nc2ccccc2nc1O)/C(=N\NC(C)(C)C)C(=O)Nc1c(C)cc(Br)cc1C` (stereo not drawn), the GI50 in the assay with SNB-19 is 31.1 µM (inactive); with LOX IMVI, 19.3 µM (inactive); in the assay on MOLT-4, 1.5 µM (inactive); with SF-295, 35.3 µM (inactive); with SF-539, 19.9 µM (inactive); with M19-MEL it was 45.1 µM (inactive). Moreover, the GI50 is 35.2 µM (inactive) in the assay on RPMI-8226; 17.5 µM (inactive) in the assay with 786-0; 19 µM (inactive) with UACC-62; 42.7 µM (inactive) with SN12C; 41 µM (inactive) in the assay with KM12; 22.3 µM (inactive) in the assay with SF-268. Further, the GI50 is 24.5 µM (inactive) with CAKI-1; 36.3 µM (inactive) in the assay with IGROV-1; 18.7 µM (inactive) with HOP-92; 35.2 µM (inactive) in the assay with SW-620; 17.4 µM (inactive) in the assay with COLO 205.

Turning to `CC(=O)Oc1ccc(CO)cc1OC(C)=O`, the GI50 in the assay on SNB-19, in the assay on LOX IMVI, in the assay on MOLT-4, with SNB-75, in the assay on SF-295 and in the assay with M19-MEL was > 100 µM (inactive) each time. The GI50 was 51.6 µM (inactive) in the assay on RPMI-8226; > 100 µM (inactive) in the assay on 786-0; > 100 µM (inactive) in the assay with UACC-62; > 100 µM (inactive) in the assay on SN12C; > 100 µM (inactive) in the assay with KM12; > 100 µM (inactive) with SF-268. In addition, the GI50 in the assay with CAKI-1, in the assay on HOP-92, with SW-620 and with COLO 205 was > 100 µM (inactive) throughout.

Turning to `Cc1ccc(C2=Nc3ccccc3NC(=O)C2)cc1`, the GI50 with SNB-19 is > 100 µM (inactive); with LOX IMVI, 95.1 µM (inactive); with MOLT-4, > 100 µM (inactive); in the assay on SNB-75, 43.8 µM (inactive); with SF-295 it was > 100 µM (inactive); in the assay with SF-539 it was > 100 µM (inactive). Moreover, the GI50 in the assay on M19-MEL was > 100 µM (inactive); in the assay with 786-0, 77.8 µM (inactive); with UACC-62, > 100 µM (inactive); in the assay on SN12C, > 100 µM (inactive); in the assay on KM12 it was > 100 µM (inactive); in the assay with SF-268, > 100 µM (inactive). In addition, the GI50 in the assay with CAKI-1 was > 100 µM (inactive); with IGROV-1 it was > 100 µM (inactive); in the assay with HOP-92, 26.9 µM (inactive); with SW-620, 27.7 µM (inactive); in the assay on COLO 205 it was > 100 µM (inactive).

For `COc1cc(OC)cc(N2CCC(c3c(N)nc(N)nc3Cl)CC2)c1`, the GI50 in the assay on SNB-19 was > 100 µM (inactive); in the assay on LOX IMVI, > 100 µM (inactive); in the assay on MOLT-4 it was 31.5 µM (inactive); in the assay with SNB-75, 47.6 µM (inactive); in the assay with SF-295, 83 µM (inactive); in the assay on M19-MEL, > 100 µM (inactive). For the same molecule, the GI50 with RPMI-8226 is 16.9 µM (inactive); in the assay on 786-0, > 100 µM (inactive); in the assay on UACC-62 it was 52.6 µM (inactive); in the assay on SN12C, > 100 µM (inactive); with KM12 it was 66.4 µM (inactive); in the assay on SF-268, 98.2 µM (inactive). The GI50 with CAKI-1 was > 100 µM (inactive); in the assay on IGROV-1, > 100 µM (inactive); in the assay with HOP-92, 48.4 µM (inactive); with SW-620, 65 µM (inactive); in the assay with COLO 205 it was 58.1 µM (inactive).

Regarding `CCNC(=O)OCc1c(COC(=O)NCC)c(-c2ccc(Cl)c(Cl)c2)n2c1CCC2`, the GI50 with SNB-19 was 21.5 µM (inactive); with MOLT-4, 5.06 µM (inactive); in the assay with SNB-75, 11.1 µM (inactive); in the assay with SF-295, 11.7 µM (inactive); in the assay on SF-539, 11.5 µM (inactive); in the assay on M19-MEL, 23.3 µM (inactive). For the same molecule, the GI50 in the assay with RPMI-8226 was 7.18 µM (inactive); with 786-0, 8.63 µM (inactive); in the assay with UACC-62, 5.92 µM (inactive); with KM12, 25.9 µM (inactive); in the assay with SF-268, 6.55 µM (inactive); with CAKI-1, 3.01 µM (inactive). The GI50 in the assay with IGROV-1 is 9.31 µM (inactive); in the assay on HOP-92, 5.5 µM (inactive); with SW-620, 13.8 µM (inactive); in the assay on COLO 205, 24.9 µM (inactive).

Regarding `N#CC1(Cc2ccccc2)CCCCN1C(=O)c1ccccc1` (stereo not drawn), the GI50 in the assay on SNB-19 is > 100 µM (inactive); in the assay with LOX IMVI, 84.7 µM (inactive); in the assay on MOLT-4 it was 74.6 µM (inactive); with SNB-75, > 100 µM (inactive); in the assay with SF-295, > 100 µM (inactive); with SF-539 it was > 100 µM (inactive). Besides, the GI50 with M19-MEL, in the assay on RPMI-8226, with 786-0, in the assay with UACC-62, with SN12C and in the assay on KM12 was > 100 µM (inactive) each time. The GI50 in the assay with SF-268, in the assay with IGROV-1, in the assay with HOP-92, in the assay on SW-620 and in the assay with COLO 205 was > 100 µM (inactive) throughout.

`CC1OC(n2cc(F)c(=O)[nH]c2=O)C=CC1=O` (stereo not drawn): the GI50 is 17.4 µM (inactive) in the assay with SNB-19; 15 µM (inactive) in the assay with LOX IMVI; 24.2 µM (inactive) in the assay with MOLT-4; 17.9 µM (inactive) with SNB-75; 17.3 µM (inactive) with SF-295; 16.4 µM (inactive) in the assay on SF-539. For the same molecule, the GI50 in the assay on M19-MEL is 19.7 µM (inactive); with RPMI-8226 it was 21 µM (inactive); in the assay on 786-0, 15.9 µM (inactive); in the assay with UACC-62 it was 17.7 µM (inactive); with SN12C, 16.4 µM (inactive); in the assay with KM12, 17.7 µM (inactive). Further, the GI50 was 19.6 µM (inactive) with SF-268; 14.5 µM (inactive) in the assay on CAKI-1; 29.8 µM (inactive) in the assay with IGROV-1; 17.7 µM (inactive) in the assay on HOP-92; 18.8 µM (inactive) with SW-620; 32.2 µM (inactive) in the assay on COLO 205.

As to `CO/N=C/c1cc(OC)c(OC)c(OC)c1`, the GI50 in the assay on SNB-19, in the assay on LOX IMVI, with MOLT-4, in the assay on SNB-75, with SF-295 and with SF-539 was > 100 µM (inactive) each time. Besides, the GI50 with M19-MEL, in the assay with RPMI-8226, with 786-0, in the assay with UACC-62, in the assay with SN12C and in the assay on KM12 was > 100 µM (inactive) throughout. Besides, the GI50 in the assay with SF-268, in the assay with CAKI-1, in the assay with IGROV-1, in the assay on HOP-92, in the assay on SW-620 and in the assay with COLO 205 was > 100 µM (inactive) throughout.

In the case of `C=CC1[C@H]2COC(C)(C)O[C@@H]2CC(=O)C1(C)C` (stereo partly drawn), the GI50 in the assay on SNB-19, in the assay with LOX IMVI, in the assay with SNB-75, with SF-295, in the assay on SF-539 and with M19-MEL was > 100 µM (inactive) in each case. For the same molecule, the GI50 with 786-0 is 72.9 µM (inactive); in the assay on SN12C it was > 100 µM (inactive); in the assay on KM12 it was > 100 µM (inactive); in the assay on SF-268 it was > 100 µM (inactive); in the assay with CAKI-1, > 100 µM (inactive); with HOP-92, > 100 µM (inactive). The GI50 in the assay with SW-620 and in the assay with COLO 205 was > 100 µM (inactive) each time.

`CC1CC2OC(=O)CC2C[C@@H]1O[Si](C)(C)C(C)(C)C` (stereo partly drawn): the GI50 is > 100 µM (inactive) with SNB-19; 55.7 µM (inactive) in the assay on LOX IMVI; 21.5 µM (inactive) with MOLT-4; 51.4 µM (inactive) in the assay with SNB-75; 58.7 µM (inactive) in the assay on SF-295; > 100 µM (inactive) with SF-539. The GI50 with M19-MEL is 42.8 µM (inactive); in the assay with RPMI-8226, 21.7 µM (inactive); in the assay on 786-0, 80.9 µM (inactive); with UACC-62 it was 68.7 µM (inactive); in the assay on SN12C it was > 100 µM (inactive); in the assay with KM12 it was 44.3 µM (inactive). Also, the GI50 in the assay on SF-268 is 64.4 µM (inactive); in the assay on CAKI-1 it was 70.5 µM (inactive); in the assay on IGROV-1, 74.5 µM (inactive); in the assay with HOP-92, 3.68 µM (inactive); in the assay on SW-620 it was > 100 µM (inactive); with COLO 205 it was 74.6 µM (inactive).

In the case of `C[C@@H]1C[C@H]2[C@@H]3CCC4=CC(=O)C=C[C@]4(C)[C@@]3(F)[C@@H](O)C[C@]2(C)[C@@]1(O)C(=O)CO` [DEXAMETHASONE], the GI50 was > 100 µM (inactive) in the assay with LOX IMVI; 95.1 µM (inactive) in the assay on MOLT-4; > 100 µM (inactive) in the assay with M19-MEL; > 100 µM (inactive) in the assay on 786-0; > 100 µM (inactive) in the assay with UACC-62; < 0.01 µM (active) with SN12C. Further, the GI50 in the assay on KM12, in the assay on CAKI-1, in the assay with IGROV-1, in the assay with HOP-92, in the assay with SW-620 and in the assay on COLO 205 was > 100 µM (inactive) each time.
